Here are results for 2 compounds from paper PMC3758303 (PLoS ONE, 2013).

Molecules are shown by their SMILES. Where only a bound is given, the exact number is not on record here.

Data set [1] has as its system genome-length HCV-RNA (O strain of genotype 1b) replication in HuH-7-derived OR6 cells. Put plainly: OR6 RL assay. Type of data set: cell-based, hepatitis C virus. The note with it: for EC50: Hepatitis C virus, OR6 assay, HuH-7, HCV strain O, 72 hrs, RL assay. The protocol:
(§1) RSc and D7 cells were derived from the cell lines HuH-7 and Li23, respectively, were cultured as described previously, [29]. HuH-7-derived OR6 [13], AH1R [30], and 1B-4R [Ikeda et al., submitted] cells harboring genome-length HCV-RNA and HuH-7-derived polyclonal sOR [31], and RSc-JRN/35B [Ikeda et al., submitted] cells harboring an HCV subgenomic replicon were cultured with medium in the presence of G418 (0.3 mg/ml; Geneticin, Invitrogen, Carlsbad, CA) as described previously. Li23-derived ORL8 [20], ORL11 [20], 1B-4RL [Ikeda et al., submitted], and KAH5RL [Ikeda et al., submitted] cells harboring genome-length HCV-RNA were maintained with medium in the presence of G418 (0.3 mg/ml) as described previously. Li23-derived polyclonal sORL8 and sORL11 cells harboring an HCV replicon, which were established by the transfection of ORN/3-5B/QR,KE,SR RNA into the cured OL8 and OL11 cells, respectively, were also cultured with medium in the presence of G418 (0.3 mg/ml) as described previously. Cured cells, from which the HCV-RNA had been eliminated by IFN treatment, were also maintained with medium in the absence of G418 as described previously. […] Therefore, when HCV-RNA is excluded from the cells or when its level is decreased, the cells are killed in the presence of G418.
RL assay was performed as described previously, [24]. Briefly, the cells were plated onto 24-well plates (2×10^4 cells per well) in triplicate and then treated with each reagent at several concentrations for 72 hrs. After treatment, the cells were subjected to luciferase assay using the RL assay system (Promega, Madison, WI). The experiments were performed at least in triplicate. From the assay results, the 50% effective concentration (EC50) of each reagent was determined.
(§2) The SI value of each reagent was determined by dividing the CC50 value by the EC50 value.

The nature of data set [2]: WST-1 cell proliferation assay, 1B-4R cells. Type of data set: cell-based. The following applies: human. As to the method: (§3) The WST-1 cell proliferation assay was performed as described previously. Briefly, The cells were plated onto 96-well plates (1×10^3 cells per well) in triplicate and then treated with each reagent at several concentrations for 72 hrs. After treatment, the cells were subjected to the WST-1 cell proliferation assay (Takara Bio, Otsu, Japan) according to the manufacturer’s protocol. This assay is based on the enzymatic cleavage of the tetrazolium salt WST-1 to formazan by cellular mitochondrial dehydrogenases present in viable cells. Therefore, there are […] the value of the WST-1 assay becomes zero. The experiments were performed at least in triplicate. From the assay results, the 50% cytotoxic concentration (CC50) of each reagent was determined.

Data set [3] is described as follows: WST-1 cell proliferation assay, AH1R cells. Type of data set: cell-based. The note with it: human. As to the method: as §3
The subject of data set [4] is genome-length HCV-RNA (1B-4 strain of genotype 1b) replication in Li23-derived 1B-4RL cells. Put plainly: 1B-4RL RL assay. Type of data set: cell-based. The note with it: Hepatitis C virus, 1B-4RL assay, Li23, HCV strain 1B-4, 72 hrs. The protocol: as §1, with “G418. […]” for “G418.”
as §2

The nature of data set [5]: WST-1 cell proliferation assay, 1B-4RL cells. Type of data set: cell-based. The following applies: human. The protocol: as §3
Data set [6] relates to genome-length HCV-RNA (KAH5 strain of genotype 1b) replication in Li23-derived KAH5RL cells. Put plainly: KAH5RL RL assay. Type of data set: cell-based. The note with it: Hepatitis C virus, Li23, HCV strain KAH5, 72 hrs. As to the method: as §1, with “G418. […]” for “G418.”
as §2

Data set [7] in a line: WST-1 cell proliferation assay, KAH5RL cells. Type of data set: cell-based. The following applies: human. As to the method:
as §3

A short description of data set [8]: WST-1 cell proliferation assay, sORL11 cells. Type of data set: cell-based. The following applies: human. The protocol:
as §3

For data set [9], the system named is authentic 9.6 kb HCV-RNA replication in HCV-O/RLGE cells. Put plainly: Quantitative RT-PCR of authentic HCV-RNA in HCV-O/RLGE cells. Type of data set: cell-based. The note with it: Hepatitis C virus, 72 hrs, real-time LightCycler PCR. As to the method:
as §2
The RNAs from HCV-RNA replicating cell lines were prepared with an RNeasy extraction kit (Qiagen). The quantitative RT-PCR analysis for HCV-RNA was performed using a real-time LightCycler PCR (Roche Diagnostics, Basel, Switzerland) as described previously, [20].
The genome-length HCV-RNA used in the assay systems described above contains three non-natural elements: RL, neomycin phosphotransferase, and an internal ribosomal entry site of encephalomyocarditis virus. To exclude the possibility that the anti-HCV activity of N-89 or N-251 was due to the inhibition of these three exogenous elements, we examined the anti-HCV activities of N-89 and N-251 using the authentic 9.6 kb HCV-RNA-replicating HCV-O/RLGE cells, which were developed by the introduction of in vitro synthesized HCV-O/RLGE RNA (Fig. 2A) into OR6c cured cells.
Figure 2 Characterization of anti-HCV activities of N-89 and N-251. (A) Schematic gene organization of authentic HCV-RNA (HCV-O/RLGE). The positions of four adaptive mutations - Q1112R, P1115L, E1202G, and K1609E - are indicated by a black star. […] The relative value (%) calculated at each point, when the level in non-treated cells was assigned as 100%, is presented here. Data are expressed as the means±standard deviation of triplicate assays. […]

Data set [10] concerns HCV-JFH-1 strain (genotype 2a) in HuH-7-derived RSc cells. Put plainly: JFH-1 reporter assay system, RSc cells. The following applies: RSc cells inoculated with JR/C5B/BX-2 supernatant, RL assay. Type of data set: cell-based, hepatitis C virus. As to the method: HCV infection was performed as described previously. RSc and D7 cells were inoculated with supernatant from RSc cells replicating JR/C5B/BX-2 [29].
Figure 2 Characterization of anti-HCV activities of N-89 and N-251. (A) Schematic gene organization of authentic HCV-RNA (HCV-O/RLGE). The positions of four adaptive mutations - Q1112R, P1115L, E1202G, and K1609E - are indicated by a black star. (B) N-89 and N-251 inhibited authentic HCV-RNA replication. The cells harboring HCV-O/RLGE RNA [19] were treated with N-89 (left panel) and N-251 (right panel) for 72 hrs, followed by real-time LightCycler PCR (black circles in the upper panel) and WST-1 assay (open triangles in the upper panel). The relative value (%) calculated at each point, when the level in non-treated cells was assigned as 100%, is presented here. Data are expressed as the means±standard deviation of triplicate assays. Western blot analysis (lower panels) was performed as described in Fig. 1B. […]
We next examined whether N-89 and N-251 worked in an HCV production system using HCV-JFH-1 strain (genotype 2a). […] To clarify whether anti-HCV activity depends on the difference of genotype or assay model, we evaluated the activities of N-89 and N-251 using RSc-JRN/35B [Ikeda et al., submitted] cells harboring a subgenomic HCV-JFH-1 replicon as an additional assay.

Details of data set [11]: method as in Kim et al., unpublished data. The following applies: ref Kim et al., unpublished data; cited from earlier work.

With `C1CCCCCC2(CCCCC1)OOCCCOO2` [N-89, 1,2,6,7-Tetraoxaspiro[7.11]nonadecane], in [1] (8 µM in OR6 cells, without a decrease in cell viability), the “anti-HCV activity (suppression)” value is reported as more than 99%. For the same compound, the EC50 in data set [1] came out at 660 nM; in data set [4] it was 120 nM; in data set [6], 190 nM; in [9] it was 2000 nM. Moreover, the CC50 at 72 h was 9300 nM in [2]; more than 500 nM in data set [3]; 2400 nM in data set [5]; 2500 nM in [7]; 1700 nM in data set [8]. Moreover, the “anti-HCV activity for the HCV-JFH-1 strain” value in data set [10] is on record as “did not show anti-HCV activity”. Besides, in data set [11], the blood concentration result is “approximately 1 µM”.
With `OCCCCCCC1COOC2(CCCCCCCCCCC2)OOC1` [N-251, 6-(1,2,6,7-tetraoxaspiro[7.11]nonadec-4-yl)hexan-1-ol], the EC50 came out at 690 nM in data set [1], 230 nM in data set [4], 290 nM in data set [6] and 1600 nM in data set [9]. The CC50 at 72 h in data set [2] amounted to 3800 nM; in data set [3], 490 nM; in data set [5] it was 1900 nM; in data set [7], 2800 nM; in [8], 3100 nM. Also, in data set [10], the “anti-HCV activity for the HCV-JFH-1 strain” value is “did not show anti-HCV activity”. In data set [11], the blood concentration entry is “approximately 1 µM”.
